Laboratory results reported in patent US12673944B2, “Compounds having inhibitory activity against glucosylceramide synthase or pharmaceutically acceptable salt thereof, processes for preparing the same, and pharmaceutical compositions comprising the same” (YUHAN CORPORATION, priority 2019, dated 2026).

Columns and labels:
[1] = molecular target: T1, glucosylceramide synthase (GCS) (Homo sapiens, UniProt Q16739); test: GCS enzyme inhibition assay (A549 cell lysate, NBD C6-ceramide, HPLC fluorescence); format: biochemical; settings: inhibitory activity against GCS, 37° C., 90 minutes
T1 construct: The obtained supernatant was used; host or cells: A549 cells (lysate supernatant after sonication)
T1 sequence (Q16739 1-394): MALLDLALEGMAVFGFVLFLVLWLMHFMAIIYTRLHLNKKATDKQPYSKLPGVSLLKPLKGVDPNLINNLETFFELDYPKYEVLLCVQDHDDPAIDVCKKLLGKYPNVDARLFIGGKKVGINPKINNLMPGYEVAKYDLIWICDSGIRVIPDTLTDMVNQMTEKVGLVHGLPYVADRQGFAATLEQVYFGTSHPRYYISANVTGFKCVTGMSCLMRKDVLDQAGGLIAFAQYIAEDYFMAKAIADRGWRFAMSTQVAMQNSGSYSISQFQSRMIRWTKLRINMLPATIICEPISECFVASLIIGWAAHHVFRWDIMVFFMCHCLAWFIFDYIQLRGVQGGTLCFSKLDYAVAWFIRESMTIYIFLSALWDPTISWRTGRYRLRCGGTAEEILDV
In short: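 A549 cell lysate (50 mM HEPES pH 7.3) served as GCS source; reactions ran 90 min at 37° C, were stopped with chloroform/methanol and lipids extracted. Activity taken as GlcCer/(Cer+GlcCer) peak area, normalised between DMSO and ibiglustat controls.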

[2] = tested on: GM1 production in Jurkat cells; test: cells; format: cell-based; settings: Homo sapiens, Jurkat, 72 h

SMILES	IC50 [1] [nM]	IC50 [2] [nM]
CC1(C)COc2cc(/C=C/c3ccc(F)cc3)ccc2C1NC(=O)O[C@@H]1CN2CCC1CC2 (stereo partly drawn) [Example 293, (S)-quinuclidin-3-yl (7-((E)-4-fluorostyryl)-3,3-dimethylchroman-4-yl)carbamate]	1.23	3
CC1(C)CC(NC(=O)O[C@@H]2CN3CCC2CC3)c2ccc(-c3cccc(C(F)(F)F)c3)cc2O1 (stereo partly drawn) [Example 295, (S)-quinuclidin-3-yl (2,2-dimethyl-7-(3-(trifluoromethyl)phenyl)chroman-4-yl)carbamate]	18.1	11.2
CC1(C)CC(NC(=O)O[C@@H]2CN3CCC2CC3)c2ccc(-c3cccc(OC(F)(F)F)c3)cc2O1 (stereo partly drawn) [Example 296, (S)-quinuclidin-3-yl (2,2-dimethyl-7-(3-(trifluoromethoxy)phenyl)chroman-4-yl)carbamate]	11.4	1.26
CC1(NC(=O)O[C@@H]2CN3CCC2CC3)CCOc2cc(-c3cccc(Cl)c3)ccc21 (stereo partly drawn) [Example 297, (S)-quinuclidin-3-yl (7-(3-chlorophenyl)-4-methylchroman-4-yl)carbamate]	0.8	5.6
CC1(NC(=O)O[C@@H]2CN3CCC2CC3)CCOc2cc(-c3cccc(F)c3)ccc21 (stereo partly drawn) [Example 298, (S)-quinuclidin-3-yl (7-(3-fluorophenyl)-4-methylchroman-4-yl)carbamate]	0.7	5.5
COc1cccc(-c2ccc3c(c2)OCCC3(C)NC(=O)O[C@@H]2CN3CCC2CC3)c1 (stereo partly drawn) [Example 299, (S)-quinuclidin-3-yl (7-(3-methoxyphenyl)-4-methylchroman-4-yl)carbamate]	0.6	9.7
CC(C)c1cccc(-c2ccc3c(c2)OCCC3(C)NC(=O)O[C@@H]2CN3CCC2CC3)c1 (stereo partly drawn) [Example 300, (S)-quinuclidin-3-yl (7-(3-isopropylphenyl)-4-methylchroman-4-yl)carbamate]	0.23	0.9
COc1ccc(Cl)c(-c2ccc3c(c2)OCCC3(C)NC(=O)O[C@@H]2CN3CCC2CC3)c1 (stereo partly drawn) [Example 301, (S)-quinuclidin-3-yl (7-(2-chloro-5-methoxyphenyl)-4-methylchroman-4-yl)carbamate]	0.8	17.5
CCOc1ccc(-c2ccc3c(c2)OCCC3(C)NC(=O)O[C@@H]2CN3CCC2CC3)cc1 (stereo partly drawn) [Example 302, (S)-quinuclidin-3-yl (7-(4-ethoxyphenyl)-4-methylchroman-4-yl)carbamate]	0.8	2.6
CN(C)c1cccc(-c2ccc3c(c2)OCCC3(C)NC(=O)O[C@@H]2CN3CCC2CC3)c1 (stereo partly drawn) [Example 303, (S)-quinuclidin-3-yl (7-(3-(dimethylamino)phenyl)-4-methylchroman-4-yl)carbamate]	0.5	3.2
CC1(NC(=O)O[C@@H]2CN3CCC2CC3)CCOc2cc(-c3coc4ccccc34)ccc21 (stereo partly drawn) [Example 304, (S)-quinuclidin-3-yl (7-(benzofuran-3-yl)-4-methylchroman-4-yl)carbamate]	0.38	2.1
CC1(NC(=O)O[C@@H]2CN3CCC2CC3)CCOc2cc(-c3cccc(C(F)(F)F)c3)ccc21 (stereo partly drawn) [Example 305, (S)-quinuclidin-3-yl (4-methyl-7-(3-(trifluoromethyl)phenyl)chroman-4-yl)carbamate]	0.7	5.4
CC1(NC(=O)O[C@@H]2CN3CCC2CC3)CCOc2cc(-c3cccc(OC(F)(F)F)c3)ccc21 (stereo partly drawn) [Example 306, (S)-quinuclidin-3-yl (4-methyl-7-(3-(trifluoromethoxy)phenyl)chroman-4-yl)carbamate]	0.5	3
CC1(NC(=O)O[C@@H]2CN3CCC2CC3)CCOc2cc(-c3ccc4c(c3)OC(F)(F)O4)ccc21 (stereo partly drawn) [Example 307, (S)-quinuclidin-3-yl (7-(2,2-difluorobenzo[d][1,3]dioxol-5-yl)-4-methylchroman-4-yl)carbamate]	1.07	3.1
CCOc1c(C)cc(-c2ccc3c(c2)OCCC3(C)NC(=O)O[C@@H]2CN3CCC2CC3)cc1C (stereo partly drawn) [Example 308, (S)-quinuclidin-3-yl (7-(4-ethoxy-3,5-dimethylphenyl)-4-methylchroman-4-yl)carbamate]	1.06	4.1
CC1(NC(=O)O[C@@H]2CN3CCC2CC3)CCOc2cc(-c3ccccc3C#N)ccc21 (stereo partly drawn) [Example 309, (S)-quinuclidin-3-yl (7-(2-cyanophenyl)-4-methylchroman-4-yl)carbamate]	5.77	37.2
CC(C)(C)c1cccc(-c2ccc3c(c2)OCCC3(C)NC(=O)O[C@@H]2CN3CCC2CC3)c1 (stereo partly drawn) [Example 310, (S)-quinuclidin-3-yl (7-(3-(tert-butyl)phenyl)-4-methylchroman-4-yl)carbamate]	0.23	0.2
Cc1cscc1-c1ccc2c(c1)OCCC2(C)NC(=O)O[C@@H]1CN2CCC1CC2 (stereo partly drawn) [Example 311, (S)-quinuclidin-3-yl (4-methyl-7-(4-methylthiophen-3-yl)chroman-4-yl)carbamate]	0.17	0.7
CC(C)(C)c1cccc(-c2ccc3c(c2)COCC3NC(=O)O[C@@H]2CN3CCC2CC3)c1 (stereo partly drawn) [Example 312, (S)-quinuclidin-3-yl (7-(3-(tert-butyl)phenyl)isochroman-4-yl)carbamate]	5.62	28.8
CC(C)c1cccc(-c2ccc3c(c2)COCC3NC(=O)O[C@@H]2CN3CCC2CC3)c1 (stereo partly drawn) [Example 313, (S)-quinuclidin-3-yl (7-(3-isopropylphenyl)isochroman-4-yl)carbamate]	3.89	34.5
CN1CCC(NC(=O)O[C@@H]2CN3CCC2CC3)c2ccc(-c3cccc(C(C)(C)C)c3)cc21 (stereo partly drawn) [Example 314, (S)-quinuclidin-3-yl (7-(3-(tert-butyl)phenyl)-1-methyl-1,2,3,4-tetrahydroquinolin-4-yl)carbamate]	6.47	56.3
CN1CCC(NC(=O)O[C@@H]2CN3CCC2CC3)c2ccc(-c3coc4ccccc34)cc21 (stereo partly drawn) [Example 315, (S)-quinuclidin-3-yl (7-(benzofuran-3-yl)-1-methyl-1,2,3,4-tetrahydroquinolin-4-yl)carbamate]	14.7	58.1
O=C(NC1CCSc2ccc(-c3ccc(Cl)cc3)cc21)O[C@@H]1CN2CCC1CC2 (stereo partly drawn) [Example 316, (S)-quinuclidin-3-yl (6-(4-chlorophenyl)thiochroman-4-yl)carbamate]	36.5	251
O=C(NC1CCSc2cc(-c3cccc(F)c3)ccc21)O[C@@H]1CN2CCC1CC2 (stereo partly drawn) [Example 317, (S)-quinuclidin-3-yl (7-(3-fluorophenyl)thiochroman-4-yl)carbamate]	2.94	13.8
O=C(NC1CCSc2cc(-c3cccc(Cl)c3)ccc21)O[C@@H]1CN2CCC1CC2 (stereo partly drawn) [Example 318, (S)-quinuclidin-3-yl (7-(3-chlorophenyl)thiochroman-4-yl)carbamate]	1.29	27.2
O=C(NC1CCSc2cc(-c3cccc(C(F)(F)F)c3)ccc21)O[C@@H]1CN2CCC1CC2 (stereo partly drawn) [Example 319, (S)-quinuclidin-3-yl (7-(3-(trifluoromethyl)phenyl)thiochroman-4-yl)carbamate]	1.07	6.7
